The target of assay [1] is BACE (Homo sapiens (Human), UniProt P56817). The assay can be described thus: In vitro BACE cell-based assay (Aβ40 in conditioned medium, sandwich ELISA). On the technique in general: An ELISA detects its analyte on a solid surface through an enzyme-linked reagent.
Assay [2] addresses Cathepsin D (Cat D) (Homo sapiens (Human), UniProt P07339). As to the kind of experiment: In vitro enzymatic Cathepsin D (Cat D) FRET assay. The following applies: read-out: CatD IC50. It counts as biochemical.
Assay [3] has as its target Beta Secretase enzyme (BACE) (Homo sapiens (Human), UniProt P56817). The assay can be described thus: In vitro enzymatic BACE FRET assay. It counts as biochemical. The following applies: read-out: BACE1 Enzyme assay IC50.
Experimental: In Vitro Enzymatic BACE FRET (Fluorescence Resonance Energy Transfer) Assay (Enzyme Assay Data in the Example Table I)
The assay buffer used in this screen is 0.05 M acetate, pH 4.2, 10% DMSO final, 100 uM genapol (which is a nonionic detergent, below its Critical Micelle Concentration). […] This assay is effectively started by the addition of FRET substrate (50 nM) and the combination is incubated for one hour. The FRET assay is terminated with by addition of Tris buffer, which raises the pH to neutrality, and the fluorescence is determined. The FRET substrate is a peptide with commercially available fluorophore and quencher, on opposite sides of the BACE cleavage site.

For 23 molecules, IC50 results are on record in patent US9085576B2 (AMGEN INC., priority 2013, dated 2015).

Sequence of BACE (P56817 46-501, species assumed): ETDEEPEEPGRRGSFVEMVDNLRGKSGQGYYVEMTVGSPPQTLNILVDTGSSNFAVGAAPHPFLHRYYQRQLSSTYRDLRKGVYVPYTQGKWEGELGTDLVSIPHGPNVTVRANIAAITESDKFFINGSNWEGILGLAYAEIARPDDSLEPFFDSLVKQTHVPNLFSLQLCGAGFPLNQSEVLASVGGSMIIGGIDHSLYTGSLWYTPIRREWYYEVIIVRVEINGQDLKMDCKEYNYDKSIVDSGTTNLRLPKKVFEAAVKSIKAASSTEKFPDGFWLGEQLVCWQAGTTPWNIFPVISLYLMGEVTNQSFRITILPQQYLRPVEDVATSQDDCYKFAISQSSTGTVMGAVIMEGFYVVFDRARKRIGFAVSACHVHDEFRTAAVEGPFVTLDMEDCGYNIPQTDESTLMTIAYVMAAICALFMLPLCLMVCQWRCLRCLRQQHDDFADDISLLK
Sequence of Beta Secretase enzyme (BACE) (P56817 46-501): as the sequence (P56817 46-501, species assumed) above
Sequence of Cathepsin D (Cat D) (P07339 65-412, species assumed): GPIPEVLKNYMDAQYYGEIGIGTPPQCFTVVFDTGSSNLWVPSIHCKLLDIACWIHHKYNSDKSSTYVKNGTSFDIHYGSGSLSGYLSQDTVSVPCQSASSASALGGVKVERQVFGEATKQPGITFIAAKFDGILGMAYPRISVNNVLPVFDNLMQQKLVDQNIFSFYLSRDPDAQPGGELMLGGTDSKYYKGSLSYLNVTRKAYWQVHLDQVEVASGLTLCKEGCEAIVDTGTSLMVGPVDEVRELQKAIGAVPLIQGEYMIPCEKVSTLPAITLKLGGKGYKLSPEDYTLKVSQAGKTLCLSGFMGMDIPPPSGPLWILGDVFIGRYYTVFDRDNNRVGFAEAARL

In the case of `Cc1cc(OC(F)F)cnc1C(=O)Nc1cc(Cl)c(F)c([C@@]2(CF)N=C(N)O[C@@H]3C[C@@H]32)c1` [Example 87, N-(3-((1R,5S,6R)-3-amino-5-(fluoromethyl)-2-oxa-4-azabicyclo[4.1.0]hept-3-en-5-yl)-5-chloro-4-fluorophenyl)-5-(difluoromethoxy)-3-methylpicolinamide], the concentration for half-maximal inhibition (IC50) came out at 0.0135 µM in assay [1], 164 µM in assay [2] and 0.0323 µM in assay [3].
For `N#Cc1ccc(C(=O)Nc2cc(Cl)c(F)c([C@@]3(CF)N=C(N)O[C@@H]4C[C@@H]43)c2)nc1` [Example 88, N-(3-((1R,5S,6R)-3-amino-5-(fluoromethyl)-2-oxa-4-azabicyclo[4.1.0]hept-3-en-5-yl)-5-chloro-4-fluorophenyl)-5-cyanopicolinamide], in that order: 0.0098 µM, 302 µM and 0.0294 µM.
The corresponding values for `COc1cnc(C(=O)Nc2cc(Cl)c(F)c([C@@]3(CF)N=C(N)O[C@@H]4C[C@@H]43)c2)c(C)n1` [Example 89, N-(3-((1R,5S,6R)-3-amino-5-(fluoromethyl)-2-oxa-4-azabicyclo[4.1.0]hept-3-en-5-yl)-5-chloro-4-fluorophenyl)-5-methoxy-3-methylpyrazine-2-carboxamide] are 0.0245 µM, 574 µM and 0.0731 µM.
As to `Cc1cc(C#N)cnc1C(=O)Nc1cc(Cl)c(F)c([C@@]2(CF)N=C(N)O[C@@H]3C[C@@H]32)c1` [Example 91, N-(3-((1R,5S,6R)-3-amino-5-(fluoromethyl)-2-oxa-4-azabicyclo[4.1.0]hept-3-en-5-yl)-5-chloro-4-fluorophenyl)-5-cyano-3-methylpicolinamide], the 50% inhibitory concentration (IC50) in assay [1] was determined as 0.0073 µM; in assay [2], 260 µM; in assay [3], 0.0506 µM.
With `NC1=N[C@](c2cc(NC(=O)c3ccc(Cl)cn3)ccc2Cl)(C(F)F)[C@@H]2C[C@@H]2O1` [Example 92, N-(3-((1S,5R,6S)-3-amino-5-(difluoromethyl)-2-oxa-4-azabicyclo[4.1.0]hept-3-en-5-yl)-4-chlorophenyl)-5-chloropicolinamide], the IC50 in assay [1] was more than 15.6 µM; in assay [2], 770 µM; in assay [3] it was 17.1 µM.
The corresponding values for `COc1ccc(C(=O)Nc2ccc(Cl)c([C@@]3(C(F)F)N=C(N)O[C@@H]4C[C@@H]43)c2)nc1` [Example 100, N-(3-((1R,5S,6R)-3-amino-5-(difluoromethyl)-2-oxa-4-azabicyclo[4.1.0]hept-3-en-5-yl)-4-chlorophenyl)-5-methoxypicolinamide] are 0.0209 µM, 190 µM and 0.0611 µM.
`COc1cnc(C(=O)Nc2ccc(Cl)c([C@@]3(C(F)F)N=C(N)O[C@@H]4C[C@@H]43)c2)c(C)c1` [Example 101, N-(3-((1R,5S,6R)-3-amino-5-(difluoromethyl)-2-oxa-4-azabicyclo[4.1.0]hept-3-en-5-yl)-4-chlorophenyl)-5-methoxy-3-methylpicolinamide]: the IC50 in assay [1] was found to be 0.0598 µM; in assay [2] it was 258 µM; in assay [3], 0.0971 µM.
For `NC1=N[C@@](c2cc(NC(=O)c3cnc(OCc4cocn4)cn3)ccc2Cl)(C(F)F)[C@H]2C[C@H]2O1` [Example 102, N-(3-((1R,5S,6R)-3-amino-5-(difluoromethyl)-2-oxa-4-azabicyclo[4.1.0]hept-3-en-5-yl)-4-chlorophenyl)-5-(oxazol-4-ylmethoxy)pyrazine-2-carboxamide], in that order: 0.013 µM, 592 µM and 0.0356 µM.
The corresponding values for `COc1cnc(C(=O)Nc2ccc(F)c([C@@]3(C(F)F)N=C(N)O[C@@H]4C[C@@H]43)c2)nc1` [Example 103, N-(3-((1R,5S,6R)-3-amino-5-(difluoromethyl)-2-oxa-4-azabicyclo[4.1.0]hept-3-en-5-yl)-4-fluorophenyl)-5-methoxypyrimidine-2-carboxamide] are 0.0574 µM, 763 µM and 0.121 µM.
For `COc1cnc(C(=O)Nc2ccc(Cl)c([C@@]3(C(F)F)N=C(N)O[C@@H]4C[C@@H]43)c2)nc1` [Example 104, N-(3-((1R,5S,6R)-3-amino-5-(difluoromethyl)-2-oxa-4-azabicyclo[4.1.0]hept-3-en-5-yl)-4-chlorophenyl)-5-methoxypyrimidine-2-carboxamide], in that order: 0.0339 µM, 374 µM and 0.0873 µM.
On to `NC1=N[C@@](c2cc(NC(=O)c3nn(C(F)F)cc3Cl)cc(F)c2F)(C(F)F)[C@H]2C[C@H]2O1` [Example 114, N-(3-((1R,5S,6R)-3-amino-5-(difluoromethyl)-2-oxa-4-azabicyclo[4.1.0]hept-3-en-5-yl)-4,5-difluorophenyl)-4-chloro-1-(difluoromethyl)-1H-pyrazole-3-carboxamide], for which the IC50 in assay [1] is 0.0198 µM; in assay [2], 158 µM; in assay [3] it was 0.0098 µM.
Regarding `NC1=N[C@@](CF)(c2cc(NC(=O)c3ccc(Cl)cn3)ccc2F)[C@@H]2C[C@@H]2O1` [Example 118, N-(3-((1S,5R,6S)-3-amino-5-(fluoromethyl)-2-oxa-4-azabicyclo[4.1.0]hept-3-en-5-yl)-4-fluorophenyl)-5-chloropicolinamide], the figures for the IC50 in assay [1], in assay [2] and in assay [3] were 0.221 µM, 1280 µM and 1.56 µM, respectively.
The corresponding values for `NC1=N[C@@](c2cc(NC(=O)c3ncc(Cl)cn3)ccc2F)(C(F)F)[C@H]2C[C@H]2O1` [Example 119, N-(3-((1R,5S,6R)-3-amino-5-(difluoromethyl)-2-oxa-4-azabicyclo[4.1.0]hept-3-en-5-yl)-4-fluorophenyl)-5-chloropyrimidine-2-carboxamide] are 0.0524 µM, 2990 µM and 0.0559 µM.
The corresponding values for `Cc1nc(OCC(F)(F)F)cnc1C(=O)Nc1ccc(F)c([C@@]2(C(F)F)N=C(N)O[C@@H]3C[C@@H]32)c1` [Example 120, N-(3-((1R,5S,6R)-3-amino-5-(difluoromethyl)-2-oxa-4-azabicyclo[4.1.0]hept-3-en-5-yl)-4-fluorphenyl)-3-methyl-5-(2,2,2-trifluoroethoxy)pyrazine-2-carboxamide] are 0.247 µM, 351 µM and 0.05 µM.
For `Cc1cc(C(F)F)cnc1C(=O)Nc1ccc(Cl)c([C@@]2(CF)N=C(N)O[C@@H]3C[C@@H]32)c1` [Example 122, N-(3-((1R,5S,6R)-3-amino-5-(fluoromethyl)-2-oxa-4-azabicyclo[4.1.0]hept-3-en-5-yl)-4-chlorophenyl)-5-(difluoromethyl)-3-methylpicolinamide], in that order: 0.0148 µM, 1070 µM and 0.099 µM.
On to `Cc1cc(C(F)(F)F)cnc1C(=O)Nc1ccc(Cl)c([C@@]2(CF)N=C(N)O[C@@H]3C[C@@H]32)c1` [Example 125, N-(3-((1R,5S,6R)-3-amino-5-(fluoromethyl)-2-oxa-4-azabicyclo[4.1.0]hept-3-en-5-yl)-4-chlorophenyl)-3-methyl-5-(trifluoromethyl) picolinamide], for which the IC50 in assay [1] was 0.0086 µM; in assay [2] it was more than 400 µM; in assay [3], 0.0806 µM.
The corresponding values for `Cc1cc(OC(F)F)cnc1C(=O)Nc1ccc(Cl)c([C@@]2(CF)N=C(N)O[C@@H]3C[C@@H]32)c1` [Example 126, N-(3-((1R,5S,6R)-3-amino-5-(fluoromethyl)-2-oxa-4-azabicyclo[4.1.0]hept-3-en-5-yl)-4-chlorophenyl)-5-(difluoromethoxy)-3-methylpicolinamide] are 0.0146 µM, 1200 µM and 0.0835 µM.
On to `COCc1cc(Cl)cnc1C(=O)Nc1ccc(Cl)c([C@@]2(CF)N=C(N)O[C@@H]3C[C@@H]32)c1` [Example 128, N-(3-((1R,5S,6R)-3-amino-5-(fluoromethyl)-2-oxa-4-azabicyclo[4.1.0]hept-3-en-5-yl)-4-chlorophenyl)-5-chloro-3-(methoxymethyl) picolinamide], for which the results for the IC50 in assay [1], in assay [2] and in assay [3] were 0.0161 µM, 1000 µM and 0.0508 µM, respectively.
The corresponding values for `NC1=N[C@@](c2cc(NC(=O)c3ncc(Cl)cc3F)ccc2F)(C(F)F)[C@H]2C[C@H]2O1` [Example 129] are 0.0403 µM, 1280 µM and 0.0389 µM.
For `COc1cnc(C(=O)Nc2ccc(F)c([C@@]3(C(F)F)N=C(N)O[C@@H]4C[C@@H]43)c2)c(C)c1` [Example 131, N-(3-((1R,5S,6R)-3-amino-5-(difluoromethyl)-2-oxa-4-azabicyclo[4.1.0]hept-3-en-5-yl)-4-fluorophenyl)-5-methoxy-3-methylpicolinamide], in that order: 0.0809 µM, 342 µM and 0.185 µM.
For `Cc1cc(NC(=O)c2ncc(C#N)cc2Cl)cc([C@@]2(C(F)F)N=C(N)O[C@@H]3C[C@@H]32)c1F` [Example 133], in that order: 0.0158 µM, 558 µM and 0.023 µM.
Turning to `COc1cc(Cl)cnc1C(=O)Nc1cc(C)c(F)c([C@@]2(C(F)F)N=C(N)O[C@@H]3C[C@@H]32)c1` [Example 134, N-(3-((1R,5S,6R)-3-amino-5-(difluoromethyl)-2-oxa-4-azabicyclo[4.1.0]hept-3-en-5-yl)-4-fluoro-5-methylphenyl)-5-chloro-3-methoxypicolinamide], the IC50 in assay [1] was 0.0604 µM; in assay [2], 1110 µM; in assay [3], 0.131 µM.
For `Cc1cc(NC(=O)c2ncc(Cl)cc2Cl)cc([C@@]2(C(F)F)N=C(N)O[C@@H]3C[C@@H]32)c1F` [Example 135, N-(3-((1R,5S,6R)-3-amino-5-(difluoromethyl)-2-oxa-4-azabicyclo[4.1.0]hept-3-en-5-yl)-4-fluoro-5-methylphenyl)-3,5-dichloropicolinamide], in that order: 0.0199 µM, 494 µM and 0.0256 µM.

One may read the IC50 as the midpoint of a concentration-inhibition curve.
